From patent US7429663B2, “7-(Pyrimidin-4-yl)-Imidazo[1,2-a]Pyrimidin-5(1H)-ones as GSK3β inhibitors” (Sanofi-Aventis, priority 2002, dated 2008)

Legend:
[1] = molecular target: GSK3β (Homo sapiens, UniProt P49841); experiment: Inhibitory activity against GSK3β (33P-ATP phosphorylation of prephosphorylated GS1 peptide, two protocols); format: biochemical; details: first or second protocol not specified
Description: Inhibitory Activity of the Medicament of the Present Invention Against GSK3β Two different protocols can be used. In a first protocol : 7.5 μM of prephosphorylated GS1 peptide and 10 μM ATP (containing 300,000 cpm of 33P-ATP) were incubated in 25 mM Tris-HCl, pH 7.5, 0.6 mM DTT, 6 mM MgCl2, 0.6 mM EGTA, 0.05 mg/ml BSA buffer for 1 hour at room temperature in the presence of GSK3β (total reaction volume : 100 microliters). In a second protocol : 4.1 μM of prephosphorylated GS1 peptide and 42 μM ATP (containing 260,000 cpm 33P-ATP) were incubated in 80 mM Mes-NaOH, pH 6.5, 1 mM Mg acetate, 0.5 mM EGTA, 5 mM 2-mercaptoethanol, 0.02% Tween 20, 10% glycerol buffer for 2 hours at room temperature in the presence of GSK3β. Inhibitors were solubilised in DMSO (final solvent concentration in the reaction medium, 1%). The reaction was stopped with 100 microliters of a solution made of 25 g polyphosphoric acid (85% P2O5), 126 ml 85% H3PO4, H2O to 500 ml and then diluted to 1:100 before use. An aliquot of the reaction mixture was then transferred to Whatman P81 cation exchange filters and rinsed with the solution described above. Incorporated 33P radioactivity was determined by liquid scintillation spectrometry. The phosphorylated GS-1 peptide had the following sequence: NH2-[…](P)EDEE-COOH. […]

Sequence of GSK3β (P49841 whole entry, species assumed): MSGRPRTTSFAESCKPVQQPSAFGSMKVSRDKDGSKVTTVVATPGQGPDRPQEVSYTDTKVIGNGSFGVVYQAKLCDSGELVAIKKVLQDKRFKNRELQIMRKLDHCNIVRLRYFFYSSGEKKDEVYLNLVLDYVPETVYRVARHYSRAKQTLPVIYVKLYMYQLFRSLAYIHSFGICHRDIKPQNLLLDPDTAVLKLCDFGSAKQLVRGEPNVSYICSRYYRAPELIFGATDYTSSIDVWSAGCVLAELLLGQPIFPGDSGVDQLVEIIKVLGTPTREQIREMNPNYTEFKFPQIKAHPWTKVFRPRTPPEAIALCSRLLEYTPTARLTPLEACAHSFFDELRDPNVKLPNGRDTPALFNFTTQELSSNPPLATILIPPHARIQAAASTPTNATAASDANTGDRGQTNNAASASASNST

O=c1cc(-c2ccncn2)nc2n(CCc3cccc4ccccc34)ccn12 [compound 6, 1-(2-Naphthalen-1-yl-ethyl)-7-(pyrimidin-4-yl)-1H-imidazo[1,2-a]pyrimidin-5-one]
melting point: 215 to 217 °C | IC50 [1]: 21 nM

O=c1cc(-c2ccncn2)nc2n(CC(O)c3ccccc3)ccn12 (stereo not shown) [compound 11, 1-(2-Hydroxy-2-phenyl-ethyl)-7-(pyrimidin-4-yl)-1H-imidazo[1,2-a]pyrimidin-5-one]
melting point: 159 to 161 °C

O=C(Cn1ccn2c(=O)cc(-c3ccncn3)nc12)c1ccccc1 [compound 12, 1-(2-Oxo-2-phenyl-ethyl)-7-(pyrimidin-4-yl)-1H-imidazo[1,2-a]pyrimidin-5-one]
melting point: 240 to 242 °C
